Test results from patent US20040053857A1, “Glycoalkaloid compositions and various uses thereof” (priority 2002, published 2004).

Legend:
Type in all cases: cell-based
LNCaP tumour cell line = assay: Dose per cell at LD50, 7500 cell six day assay; settings: 7500 cells, dose per cell limiting
Excerpt: (§1) Tumour cell line LNCaP was used at 7500 cells in a six day assay format while 786-O was used in a 650 cell, six day format where dose per cell is not a limiting factor determining LD50 as well as in 5000 cell, three day format where dose per cell does limit LD50.

A2058 tumour cell line = assay: Dose per cell at LD50, 5000 cell six day assay; settings: A2058, 5000 cells, dose per cell limiting
Excerpt: (§2) Tumour cell lines A2058, NO36 and LS174T and the normal adult dermal fibroblast line NHDF-Ad were used in 5000 cell, six day assays to compare dose per cell at LD50 values for BEC (1:1 solamargine:solasonine), solamargine, solasonine and an equimolar mixture of solamargine and solasonine. Data from the fibroblast cell line NHRE in a 2500 cell 3 day assay was also obtained.

LS174T tumour cell line = assay: Dose per cell at LD50, 5000 cell six day assay; settings: 5000 cells, dose per cell limiting
Excerpt: as §2

[1] = system: NHDF-Ad normal adult dermal fibroblast line; assay: Dose per cell at LD50, 5000 cell six day assay; settings: NHDF-Ad normal cells, 5000 cells, dose per cell limiting
Excerpt: as §2

NO36 tumour cell line [2] = assay: Dose per cell at LD50, 5000 cell six day assay; settings: NO36, 5000 cells, dose per cell limiting
Excerpt: as §2

786-O tumour cell line [3] = assay: Dose per cell at LD50, 5000 cell three day format (dose per cell limiting); settings: 5000 cells
Excerpt: as §1

[4] = system: NHRE fibroblast cell line; assay: Dose per cell at LD50, 2500 cell 3 day assay; settings: NHRE normal cells, 2500 cells, dose per cell limiting
Excerpt: as §2

786-O tumour cell line [5] = assay: Dose per cell at LD50, 650 cell six day format (dose per cell not limiting); settings: 650 cells
Excerpt: as §1

786-O tumour cell line [6] = assay: Effect of solamargine:solasonine ratio on cytotoxicity, MTT cell proliferation assay; settings: 3 day assay, 5000 cells
Method: (§3) Tumour cell lines 786-O and NO36 and normal fibroblasts NHDF-Ad were used in 5000 cell assays, for three, six and six day assays, respectively, to study the effect of solamargine:solasonine ratio on cytotoxicity.
(§4) Solutions of 4 mg/mL solamargine and 4 mg/mL solasonine in 3% acetic acid were mixed to provide the various ratios. These mixtures were diluted in the culture medium appropriate to the cell line used to concentrations ranging from 0.32 to 40 ug/mL. Fifty uL aliquots were added to tissue culture wells seeded with 5000 cells in 150 uL culture medium 24 hours previously.
(§5) Cell survival was assessed using the MTT cell proliferation assay following four days growth after application of the alkaloids. The formazan absorbance of alkaloid treated wells relative to wells treated with an equivalently dilute acetic acid solution expressed as a percentage has been taken as percentage cell survival.

[7] = system: NHDF-Ad normal fibroblasts; assay: as above; settings: 6 day assay, 5000 cells
Method: as §3, §4, §5

NO36 tumour cell line [8] = assay: as above; settings: NO36, 6 day assay, 5000 cells
Method: as §3, §4, §5

Row | SMILES | Dose per cell at LD50, pg/cell of total alkaloid (LNCaP tumour cell line) [pg/cell] | Dose per cell at LD50, pg/cell of total alkaloid (A2058 tumour cell line) [pg/cell] | Dose per cell at LD50, pg/cell of total alkaloid (LS174T tumour cell line) [pg/cell] | Dose per cell at LD50, pg/cell of total alkaloid [1] [pg/cell] | Dose per cell at LD50, pg/cell of total alkaloid (NO36 tumour cell line [2]) [pg/cell] | Dose per cell at LD50, pg/cell of total alkaloid (786-O tumour cell line [3]) [pg/cell] | Dose per cell at LD50, pg/cell of total alkaloid [4] [pg/cell] | Dose per cell at LD50, pg/cell of total alkaloid (786-O tumour cell line [5]) [pg/cell] | Dose per cell at LD50, (786-O tumour cell line [6]) [pg] | Dose per cell at LD50, [7] [pg] | Dose per cell at LD50, (NO36 tumour cell line [8]) [pg]
1 | C[C@@H]1CC[C@@]2(NC1)O[C@H]1C[C@H]3[C@@H]4CC=C5C[C@@H](O[C@@H]6O[C@H](CO)[C@H](O)[C@H](O[C@@H]7O[C@H](CO)[C@@H](O)[C@H](O)[C@H]7O)[C@H]6O[C@@H]6O[C@@H](C)[C@H](O)[C@@H](O)[C@H]6O)CC[C@]5(C)[C@H]4CC[C@]3(C)[C@H]1[C@@H]2C [Solasonine, solasonine] | 432.5 | 685 | >400 | 587.6 | 613.2 | >400 | 1657.7 | 5606.0 | 500 | 400 | 613
2 | C[C@@H]1CC[C@@]2(NC1)O[C@H]1C[C@H]3[C@@H]4CC=C5C[C@@H](O[C@@H]6O[C@H](CO)[C@@H](O[C@@H]7O[C@@H](C)[C@H](O)[C@@H](O)[C@H]7O)[C@H](O)[C@H]6O[C@@H]6O[C@@H](C)[C@H](O)[C@@H](O)[C@H]6O)CC[C@]5(C)[C@H]4CC[C@]3(C)[C@H]1[C@@H]2C [Solamargine, solamargine] | 121.9 | 199.0 | 162.8 | 209.2 | 154.8 | 208.0 | 227.9 | 1394.0 | 304 | 112 | 209
